Source: patent US20050256093A1, “Branched polyamine steroid derivatives” (Leo Pharma, priority 2002, published 2005)
Values after ≈ are worked out from the molar mass of the structure shown.

Columns and labels:
Assay in all cases: agar cup assay MIC
Assay type in all cases: cell-based
Asbergillus niger ZM35 = conditions: Aspergillus niger
Excerpt: (§1) In vitro investigations have shown a significant potency of the compounds of the invention against a large number of bacteria including gram-positive and gram-negative strains (Staphyiococci, Streptococci, Corynebacteriae, Mycobacteriae, Proteus, Propionibacterium, Pseudomonas, Neisseriae, E. coli) and fungal strains (Candida and Aspergillus). […] In addition, the studies of post-antibiotic effects point towards a strong bactericidal effect of the compounds of the invention. […] Minimum Inhibitory Concentrations were estimated using an agar cup assay. Bacterial strains were obtained from the American Type Culture Collection or from our own collection of clinical isolates. Colonies from fresh overnight culture were resuspended in saline water to 0.5 MacFarland corresponding to 10^8 CFU/ml. 200 ml Mueller Hinton agar (Oxoid) at 48° C. was inoculated at a concentration of 10^6 CFU/ml and poured into square petri dishes (245×245 mm). Holes were made in the inoculated plates and 200 μl of the compounds to be tested were disposed into each hole. A dilution series of compounds contained six dilution between 0.25 and 125 μg/ml. For Streptococci Mueller Hinton agar was supplemented with 5% sheep blood. Plates were appropriately incubated and zone diameters of growth inhibition were measured using an electronic caliper. MICs were estimated using a linear regression curve between the zone diameter of growth inhibition and the log2 of the sample concentration. The microbiological assay set up is in agreement with the European Pharmacopoeia 3rd edition (1997). The inhibition zones are function of the concentration of the compounds used. Known antibiotics including fusidic acid (FA), mupirocin and linezolid were used as reference compounds.

Candida albicans ZA = tested on: Candida albicans ZA
Excerpt: as §1

[1] = tested on: Corynebacterium xerosis FF
Excerpt: as §1

E. coli HA165 = conditions: Escherichia coli
Excerpt: as §1

[2] = tested on: Propionibacterium acnes FN33; conditions: Cutibacterium acnes
Excerpt: as §1

[3] = tested on: Pseudomonas aeruginosa BA17
Excerpt: as §1

S. aureus CJ200 = conditions: Staphylococcus aureus
Excerpt: as §1

S. aureus CJ234F = conditions: Staphylococcus aureus; S. aureus CJ234F (MRSA, Fus. resistant)
Excerpt: as §1

S. aureus CJ234R = conditions: Staphylococcus aureus; S. aureus CJ234R (MRSA, Rifampicin resistant)
Excerpt: as §1

S. aureus CJ247 = conditions: Staphylococcus aureus
Excerpt: as §1

S. aureus N6 = conditions: Staphylococcus aureus; S. aureus N6 (Fus. resistant)
Excerpt: as §1

S. epidermis CK5 = conditions: Staphylococcus epidermidis
Excerpt: as §1

[4] = tested on: Saccaromyces cervisiae ZZ7; conditions: Saccharomyces cerevisiae
Excerpt: as §1

[5] = tested on: Streptococcus faecium EI19; conditions: Enterococcus faecium; Streptococcus faecium EI19 (Penicillin resistant); agar with 5% sheep blood
Excerpt: as §1

[6] = tested on: Streptococcus pyogenes EC88; conditions: agar with 5% sheep blood
Excerpt: as §1

| SMILES | MIC (Asbergillus niger ZM35) [µg/mL] | MIC (Candida albicans ZA) [µg/mL] | MIC [1] [µg/mL] | MIC (E. coli HA165) [µg/mL] | MIC [2] [µg/mL] | MIC [3] [µg/mL] | MIC (S. aureus CJ200) [µg/mL] | MIC (S. aureus CJ234F) [µg/mL] | MIC (S. aureus CJ234R) [µg/mL] | MIC (S. aureus CJ247) [µg/mL] | MIC (S. aureus N6) [µg/mL] | MIC (S. epidermis CK5) [µg/mL] | MIC [4] [µg/mL] | MIC [5] [µg/mL] | MIC [6] [µg/mL] |
| --- | --- | --- | --- | --- | --- | --- | --- | --- | --- | --- | --- | --- | --- | --- | --- |
| CC(=O)O[C@H]1C[C@@]2(C)C(C[C@@H](O)C3[C@@]4(C)CC[C@@H](O)[C@@H](C)C4CC[C@@]32C)[C@@H]1[C@H](CCCC(C)C)C(=O)NCCN(CCN)CCN (stereo partly drawn) [Compound 101, 21-N-{2′-[bis(2′-aminoethyl)amino]ethyl}-17R,20S,24,25-tetrahydrofusid-21-amide] | 4 (≈ 6.16 µM) | 16 (≈ 24.7 µM) | 4 (≈ 6.16 µM) | 16 (≈ 24.7 µM) | 4 (≈ 6.16 µM) | 64 (≈ 98.6 µM) | 4 (≈ 6.16 µM) | 4 (≈ 6.16 µM) | 4 (≈ 6.16 µM) | 4 (≈ 6.16 µM) | 4 (≈ 6.16 µM) | 4 (≈ 6.16 µM) | 4 (≈ 6.16 µM) | 16 (≈ 24.7 µM) | 16 (≈ 24.7 µM) |
| CC(C)CCCC(C(=O)NCCN(CCN)CCN)[C@@H]1CC[C@@]2(C)C1C[C@@H](O)C1[C@@]3(C)CC[C@@H](O)[C@@H](C)C3CC[C@@]12C (stereo partly drawn) [Compound 103, 21-N-{2′-[bis(2′-aminoethyl)amino]ethyl}-16-desacetoxy-17R,20S,24,25-tetrahydrofusid-21-amide] | > 125 | 1 (≈ 1.69 µM) | 1 (≈ 1.69 µM) | 4 (≈ 6.77 µM) | 1 (≈ 1.69 µM) | 16 (≈ 27.1 µM) | 1 (≈ 1.69 µM) | 1 (≈ 1.69 µM) | 1 (≈ 1.69 µM) | 1 (≈ 1.69 µM) | 1 (≈ 1.69 µM) | 1 (≈ 1.69 µM) | 4 (≈ 6.77 µM) | 16 (≈ 27.1 µM) | 4 (≈ 6.77 µM) |
| CC(C)CCCC(C(=O)NCCN(CCN)CCN)C1=C2C[C@@H](O)C3[C@@]4(C)CC[C@@H](O)[C@@H](C)C4CC[C@]3(C)[C@@]2(C)CC1 (stereo partly shown) [Compound 104, 21-N-{2′-[bis(2′-aminoethyl)amino]ethyl}-13(17)-en-17,20,24,25-tetrahydrofusidan-21-carboxamide] | > 64 | 16 (≈ 27.2 µM) | 16 (≈ 27.2 µM) | > 64 | 16 (≈ 27.2 µM) | > 64 | 16 (≈ 27.2 µM) | 16 (≈ 27.2 µM) | 16 (≈ 27.2 µM) | 16 (≈ 27.2 µM) | 16 (≈ 27.2 µM) | 16 (≈ 27.2 µM) | 16 (≈ 27.2 µM) | > 64 | 16 (≈ 27.2 µM) |
| CC(=O)O[C@H]1C[C@@]2(C)C(C[C@@H](O)C3[C@@]4(C)CC[C@H](O)[C@@H](C)C4CC[C@@]32C)[C@@H]1[C@H](CCCC(C)C)C(=O)NCCN(CCN)CCN (stereo partly shown) [Compound 105] | 64 (≈ 98.6 µM) | 16 (≈ 24.7 µM) | 16 (≈ 24.7 µM) | 64 (≈ 98.6 µM) | 16 (≈ 24.7 µM) | 16 (≈ 24.7 µM) | 16 (≈ 24.7 µM) | 16 (≈ 24.7 µM) | 16 (≈ 24.7 µM) | 16 (≈ 24.7 µM) | 16 (≈ 24.7 µM) | 16 (≈ 24.7 µM) | 64 (≈ 98.6 µM) | 64 (≈ 98.6 µM) | 64 (≈ 98.6 µM) |
| CC(=O)O[C@H]1C[C@@]2(C)C(CC=C3[C@]2(C)CCC2[C@H](C)[C@H](O)CC[C@]32C)[C@@H]1[C@H](CCCC(C)C)C(=O)NCCN(CCN)CCN (stereo partly drawn) [Compound 106, 21-N-{2′-[bis(2′-aminoethyl)amino]ethyl}-9(11)-en-17R,20S,24,25-tetrahydrofusid-21-amide] | 63 (≈ 99.8 µM) | 16 (≈ 25.4 µM) | 4 (≈ 6.34 µM) | 16 (≈ 25.4 µM) | 4 (≈ 6.34 µM) | 16 (≈ 25.4 µM) | – | 4 (≈ 6.34 µM) | 4 (≈ 6.34 µM) | 4 (≈ 6.34 µM) | 4 (≈ 6.34 µM) | 4 (≈ 6.34 µM) | 16 (≈ 25.4 µM) | 16 (≈ 25.4 µM) | 4 (≈ 6.34 µM) |
| CC(=O)O[C@H]1C[C@@]2(C)C(CCC3[C@@]4(C)CC[C@@H](OS(=O)(=O)O)[C@@H](C)C4CC[C@@]32C)[C@@H]1[C@H](CCCC(C)C)C(=O)NCCN(CCN)CCN (stereo partly shown) [Compound 111, 21-N-{2′-[bis(2′-aminoethyl)amino]ethyl}-3-OSO3-11-desoxy-17,20,24,25-tetrahydro-fusid-21-amide] | 64 (≈ 89.8 µM) | 125 (≈ 175 µM) | 16 (≈ 22.4 µM) | 16 (≈ 22.4 µM) | 4 (≈ 5.61 µM) | > 125 | 16 (≈ 22.4 µM) | 16 (≈ 22.4 µM) | 16 (≈ 22.4 µM) | – | – | 4 (≈ 5.61 µM) | 64 (≈ 89.8 µM) | – | 16 (≈ 22.4 µM) |
| CC(C)CCCC(C(=O)NCCN(CCN)CCN)[C@H]1CC[C@@]2(C)C1CCC1[C@@]3(C)CC[C@@H](O)[C@@H](C)C3CC[C@@]12C (stereo partly shown) [Compound 112, 21-N-{2′-[bis(2′-aminoethyl)amino]ethyl}-11-desoxy-16-desacetoxy-17S,20,24,25-tetrahydrofusid-21-amide] | – | – | 0.25 (≈ 0.435 µM) | – | – | – | 1 (≈ 1.74 µM) | 1 (≈ 1.74 µM) | 1 (≈ 1.74 µM) | 1 (≈ 1.74 µM) | 1 (≈ 1.74 µM) | 1 (≈ 1.74 µM) | – | – | – |
| C[C@H](C(=O)NCCCN(CCCN)CCCN)[C@H]1CC[C@H]2[C@@H]3CC=C4C[C@@H](O)CC[C@]4(C)[C@H]3CC[C@]12C [Compound 114, 22-N-{3′-[bis(3′-aminopropyl)amino]propyl}-23,24-bisnor-5-cholenic-22-amide] | – | > 125 | 64 (≈ 124 µM) | 16 (≈ 31 µM) | 16 (≈ 31 µM) | > 125 | 16 (≈ 31 µM) | 16 (≈ 31 µM) | 16 (≈ 31 µM) | 16 (≈ 31 µM) | 16 (≈ 31 µM) | 16 (≈ 31 µM) | 64 (≈ 124 µM) | – | 64 (≈ 124 µM) |
| CC(=O)O[C@H]1C[C@@]2(C)C(C[C@@H](O)C3[C@@]4(C)CC[C@@H](OC(C)=O)[C@@H](C)C4CC[C@@]32C)[C@@H]1[C@H](CCCC(C)C)C(=O)NCCCN(CCCN)CCCN (stereo partly shown) [Compound 115] | 125 (≈ 171 µM) | 16 (≈ 21.8 µM) | 64 (≈ 87.3 µM) | 16 (≈ 21.8 µM) | 4 (≈ 5.46 µM) | 16 (≈ 21.8 µM) | 4 (≈ 5.46 µM) | – | 4 (≈ 5.46 µM) | – | – | 4 (≈ 5.46 µM) | 16 (≈ 21.8 µM) | – | 4 (≈ 5.46 µM) |
| CC(=O)O[C@H]1C[C@@]2(C)C(CCC3[C@@]4(C)CC[C@@H](OS(=O)(=O)O)[C@@H](C)C4CC[C@@]32C)[C@@H]1[C@H](CCCC(C)C)C(=O)NCCCN(CCCN)CCCN (stereo partly shown) [Compound 116] | 64 (≈ 84.8 µM) | 64 (≈ 84.8 µM) | 4 (≈ 5.3 µM) | 64 (≈ 84.8 µM) | 16 (≈ 21.2 µM) | 125 (≈ 166 µM) | 4 (≈ 5.3 µM) | 4 (≈ 5.3 µM) | 4 (≈ 5.3 µM) | – | – | 4 (≈ 5.3 µM) | 16 (≈ 21.2 µM) | – | 16 (≈ 21.2 µM) |
| CC(C)CCCC(C(=O)NCCCN(CCCN)CCCN)[C@H]1CC[C@@]2(C)C1CCC1[C@@]3(C)CC[C@@H](O)[C@@H](C)C3CC[C@@]12C (stereo partly shown) [Compound 117, 21-N-{3′-[bis(3′-aminopropyl)amino]propyl}-1-11-desoxy-16-desacetoxy-17S,20,24,25-tetrahydrofusid-21-amide] | – | – | 0.25 (≈ 0.405 µM) | – | – | – | 1 (≈ 1.62 µM) | 1 (≈ 1.62 µM) | 1 (≈ 1.62 µM) | 1 (≈ 1.62 µM) | 1 (≈ 1.62 µM) | 1 (≈ 1.62 µM) | – | – | – |
| CC(=O)O[C@H]1C[C@@]2(C)[C@@H](C[C@@H](O)[C@H]3[C@@]4(C)CC[C@@H](O)[C@@H](C)[C@@H]4CC[C@@]32C)/C1=C(\CCC=C(C)C)C(=O)O [FA, fusidic acid, reference compound] | > 64 | > 64 | 0.1 (≈ 0.194 µM) | > 64 | 0.2 (≈ 0.387 µM) | > 64 | 0.02 (≈ 0.0387 µM) | 16 (≈ 31 µM) | 0.02 (≈ 0.0387 µM) | 0.02 (≈ 0.0387 µM) | 16 (≈ 31 µM) | 0.02 (≈ 0.0387 µM) | > 64 | – | 16 (≈ 31 µM) |
| CC(=O)NC[C@H]1CN(c2ccc(N3CCOCC3)c(F)c2)C(=O)O1 [Linezolid, linezolid, reference compound] | – | – | – | – | 1 (≈ 2.96 µM) | – | 4 (≈ 11.9 µM) | 1 (≈ 2.96 µM) | 16 (≈ 47.4 µM) | 1 (≈ 2.96 µM) | – | 0.25 (≈ 0.741 µM) | – | – | 4 (≈ 11.9 µM) |
| C/C(=C\C(=O)OCCCCCCCCC(=O)O)C[C@@H]1OC[C@H](C[C@@H]2O[C@H]2[C@@H](C)[C@H](C)O)[C@@H](O)[C@H]1O [Mupirocin, mupirocin, reference compound] | – | – | – | – | – | – | 1 (≈ 2 µM) | 0.5 (≈ 0.999 µM) | 1 (≈ 2 µM) | 0.5 (≈ 0.999 µM) | – | 0.04 (≈ 0.0799 µM) | – | – | 1 (≈ 2 µM) |
